Laboratory results: US20240059671A1, “TYROSINE KINASE 2 (TYK2) DEGRADATION COMPOUNDS AND METHODS OF USE” (CULLGEN (SHANGHAI), INC., priority 2020, published 2024)

Biological target: TYK2 (Homo sapiens, UniProt P29597)
Test: TYK2 protein degradation in MOLT-4 cells by immunoblotting
Format: cell-based
Set-up: endogenous in cells; host or cells: MOLT-4
Conditions: MOLT-4 cells, 24 hours
Protocol: MOLT-4 cells were treated with compounds at 0.5 and 5 μM concentrations for 24 hours.
MOLT-4 cells were treated with CPD-038, CPD-039, and CPD-040 at 0.04, 0.2, 1, and 5 μM concentrations for 24 hours.
MOLT-4 or NOMO-1 cells were cultured at 37° C. with 5% CO2 in RPMI 1640 Medium supplemented with 10% fetal bovine serum. Cells were authenticated using the short tandem repeat (STR) assays. Mycoplasma test results were negative.
Cultured cells were washed with cold PBS once and lysed in cold RIPA buffer supplemented with protease inhibitors and phosphatase inhibitors (Beyotime Biotechnology). The solutions were then incubated at 4° C. for 30 minutes with gentle agitation to fully lyse cells. Cell lysates were centrifuged at 13,000 rpm for 10 minutes at 4° C. and pellets were discarded. Total protein concentrations in the lysates were determined by BCA assays (Beyotime Biotechnology). Cell lysates were mixed with Laemmli loading buffer to 1× and heated at 99° C. for 5 min. Proteins were resolved on SDS-PAGE and visualized by chemiluminescence. Images were taken by a ChemiDoc MP Imaging system (Bio-Rad). Protein bands were quantitated using the accompanied software provided by Bio-Rad.
The percentage of TYK2 protein degradation of each compound at 0.5 and 5 μM determined in MOLT-4 cells as described in Methods.

Sequence of TYK2 (P29597 whole entry): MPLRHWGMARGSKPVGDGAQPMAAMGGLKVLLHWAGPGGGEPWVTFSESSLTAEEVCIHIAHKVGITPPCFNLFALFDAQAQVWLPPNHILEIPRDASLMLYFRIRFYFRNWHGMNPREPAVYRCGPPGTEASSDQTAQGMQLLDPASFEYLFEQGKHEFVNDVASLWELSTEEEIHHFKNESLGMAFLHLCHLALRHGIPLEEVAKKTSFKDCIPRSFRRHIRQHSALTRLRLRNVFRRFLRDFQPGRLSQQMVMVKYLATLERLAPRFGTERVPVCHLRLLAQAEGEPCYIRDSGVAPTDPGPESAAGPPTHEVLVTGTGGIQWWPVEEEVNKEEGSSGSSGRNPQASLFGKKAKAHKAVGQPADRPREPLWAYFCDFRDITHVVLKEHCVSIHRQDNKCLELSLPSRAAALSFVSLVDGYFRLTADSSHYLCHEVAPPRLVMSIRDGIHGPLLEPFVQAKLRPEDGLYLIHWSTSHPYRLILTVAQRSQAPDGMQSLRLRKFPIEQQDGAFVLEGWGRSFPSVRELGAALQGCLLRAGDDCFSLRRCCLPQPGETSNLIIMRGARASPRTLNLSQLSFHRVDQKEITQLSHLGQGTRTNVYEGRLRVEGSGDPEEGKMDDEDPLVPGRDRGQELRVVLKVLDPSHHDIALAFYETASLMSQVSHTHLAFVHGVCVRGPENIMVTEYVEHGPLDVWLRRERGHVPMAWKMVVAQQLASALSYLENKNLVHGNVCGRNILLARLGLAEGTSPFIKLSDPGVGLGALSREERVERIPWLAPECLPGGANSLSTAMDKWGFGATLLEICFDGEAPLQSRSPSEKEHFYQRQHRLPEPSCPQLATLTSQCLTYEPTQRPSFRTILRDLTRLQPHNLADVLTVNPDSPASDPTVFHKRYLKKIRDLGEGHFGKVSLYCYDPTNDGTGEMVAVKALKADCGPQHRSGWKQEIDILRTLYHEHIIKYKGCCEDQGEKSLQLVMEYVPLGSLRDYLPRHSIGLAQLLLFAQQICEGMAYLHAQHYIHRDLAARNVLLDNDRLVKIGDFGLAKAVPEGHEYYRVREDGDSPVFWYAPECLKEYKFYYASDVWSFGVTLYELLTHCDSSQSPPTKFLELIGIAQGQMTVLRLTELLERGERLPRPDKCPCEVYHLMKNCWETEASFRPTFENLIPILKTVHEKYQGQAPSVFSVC

SMILES | TYK2 Degradation (0.5 μM) [%] | TYK2 Degradation (5 μM) [%] | TYK2 Degradation (MOLT-4, 0.5 μM) | TYK2 Degradation (MOLT-4, 5 μM)
CNC(=O)c1nnc(NC(=O)CNC(=O)CNc2cccc3c2C(=O)N(C2CCC(=O)NC2=O)C3=O)cc1Nc1cccc(-c2ncn(C)n2)c1OC (centres unmarked) [CPD-042, 6-(2-(2-((2-(2,6-Dioxopiperidin-3-yl)-1,3-dioxoisoindolin-4-yl)amino)acetamido)acetamido)-4-((2-methoxy-3-(1-methyl-1H-1,2,4-triazol-3-yl)phenyl)amino)-N-methylpyridazine-3-carboxamide] | ≤20 | ≤20 |  | 
CNC(=O)c1nnc(NC(=O)CNC(=O)CCCCCCCNc2ccc3c(c2)C(=O)N(C2CCC(=O)NC2=O)C3=O)cc1Nc1cccc(-c2ncn(C)n2)c1OC (centres unmarked) [CPD-060, 6-(2-(8-((2-(2,6-Dioxopiperidin-3-yl)-1,3-dioxoisoindolin-5-yl)amino)octanamido)acetamido)-4-((2-methoxy-3-(1-methyl-1H-1,2,4-triazol-3-yl)phenyl)amino)-N-methylpyridazine-3-carboxamide] | ≤20 | ≤20 |  | 
CNC(=O)c1nnc(NC(=O)CNC(=O)COc2cc(-c3scnc3C)ccc2CNC(=O)[C@@H]2C[C@@H](O)CN2C(=O)[C@@H](NC(=O)C2(F)CC2)C(C)(C)C)cc1Nc1cccc(-c2ncn(C)n2)c1OC [CPD-101, 6-(2-(2-(2-(((2S,4R)-1-((S)-2-(1-Fluorocyclopropane-1-carboxamido)-3,3-dimethylbutanoyl)-4-hydroxypyrrolidine-2-carboxamido)methyl)-5-(4-methylthiazol-5-yl)phenoxy)acetamido)acetamido)-4-((2-methoxy-3-(1-methyl-1H-1,2,4-triazol-3-yl)phenyl)amino)-N-methylpyridazine-3-carboxamide] |  |  | C (C: ≤20% TYK2 degradation) | C (C: ≤20% TYK2 degradation)
CNC(=O)c1nnc(NC(=O)CNC(=O)CCCCCCC(=O)N[C@H](C(=O)N2C[C@H](O)C[C@H]2C(=O)N[C@@H](C)c2ccc(-c3scnc3C)cc2)C(C)(C)C)cc1Nc1cccc(-c2ncn(C)n2)c1OC [CPD-083, N^1-((S)-1-((2S,4R)-4-Hydroxy-2-(((S)-1-(4-(4-methylthiazol-5-yl)phenyl)ethyl)carbamoyl)pyrrolidin-1-yl)-3,3-dimethyl-1-oxobutan-2-yl)-N^8-(2-((5-((2-methoxy-3-(1-methyl-1H-1,2,4-triazol-3-yl)phenyl)amino)-6-(methylcarbamoyl)pyridazin-3-yl)amino)-2-oxoethyl)octanediamide] |  |  | B (B: <60% TYK2 degradation, and >20% TYK2 degradation) | A (A: ≥60% TYK2 degradation)
CNC(=O)c1nnc(NC(=O)CNC(=O)CCCCCCNc2ccc3c(c2)C(=O)N(C2CCC(=O)NC2=O)C3=O)cc1Nc1cccc(-c2ncn(C)n2)c1OC (centres unmarked) [CPD-059, 6-(2-(7-((2-(2,6-Dioxopiperidin-3-yl)-1,3-dioxoisoindolin-5-yl)amino)heptanamido)acetamido)-4-((2-methoxy-3-(1-methyl-1H-1,2,4-triazol-3-yl)phenyl)amino)-N-methylpyridazine-3-carboxamide] | ≤20 | ≤20 |  | 
CNC(=O)c1nnc(NC(=O)C2CC2)cc1Nc1cccc(-c2ncn(CCNC(=O)CCOCCOCCOCCOCCOCCNc3ccc4c(c3)C(=O)N(C3CCC(=O)NC3=O)C4=O)n2)c1OC (centres unmarked) [CPD-022, 6-(Cyclopropanecarboxamido)-4-((3-(1-(1-((2-(2,6-dioxopiperidin-3-yl)-1,3-dioxoisoindolin-5-yl)amino)-18-oxo-3,6,9,12,15-pentaoxa-19-azahenicosan-21-yl)-1H-1,2,4-triazol-3-yl)-2-methoxyphenyl)amino)-N-methylpyridazine-3-carboxamide] | 40 | ≤20 |  | 
CNC(=O)c1nnc(NC(=O)CNC(=O)CCCNC(=O)C[C@H](NC(=O)[C@@H]2C[C@@H](O)CN2C(=O)[C@@H](NC(=O)C2(F)CC2)C(C)(C)C)c2ccc(-c3scnc3C)cc2)cc1Nc1cccc(-c2ncn(C)n2)c1OC [CPD-088, 6-(2-(4-((S)-3-((2S,4R)-1-((S)-2-(1-Fluorocyclopropane-1-carboxamido)-3,3-dimethylbutanoyl)-4-hydroxypyrrolidine-2-carboxamido)-3-(4-(4-methylthiazol-5-yl)phenyl)propanamido)butanamido)acetamido)-4-((2-methoxy-3-(1-methyl-1H-1,2,4-triazol-3-yl)phenyl)amino)-N-methylpyridazine-3-carboxamide] |  |  | C (C: ≤20% TYK2 degradation) | 
CNC(=O)c1nnc(NC(=O)C2CC2)cc1Nc1cccc(-c2ncn(CCNC(=O)CCCCCCC(=O)N[C@H](C(=O)N3C[C@H](O)C[C@H]3C(=O)NCc3ccc(-c4scnc4C)cc3)C(C)(C)C)n2)c1OC [CPD-079, N^1-(2-(3-(3-((6-(Cyclopropanecarboxamido)-3-(methylcarbamoyl)pyridazin-4-yl)amino)-2-methoxyphenyl)-1H-1,2,4-triazol-1-yl)ethyl)-N^8-((S)-1-((2S,4R)-4-hydroxy-2-((4-(4-methylthiazol-5-yl)benzyl)carbamoyl)pyrrolidin-1-yl)-3,3-dimethyl-1-oxobutan-2-yl)octanediamide] |  |  | C (C: ≤20% TYK2 degradation) | C (C: ≤20% TYK2 degradation)
CNC(=O)c1nnc(NC(=O)C2CC2)cc1Nc1cccc(-c2ncn(CCNC(=O)CCOCCNc3ccc4c(c3)C(=O)N(C3CCC(=O)NC3=O)C4=O)n2)c1OC (centres unmarked) [CPD-018, 6-(Cyclopropanecarboxamido)-4-((3-(1-(2-(3-(2-((2-(2,6-dioxopiperidin-3-yl)-1,3-dioxoisoindolin-5-yl)amino)ethoxy)propanamido)ethyl)-1H-1,2,4-triazol-3-yl)-2-methoxyphenyl)amino)-N-methylpyridazine-3-carboxamide] | ≤20 |  |  | 
CNC(=O)c1nnc(NC(=O)CNC(=O)CCOCCOCCOCCOCCOCCNc2ccc3c(c2)C(=O)N(C2CCC(=O)NC2=O)C3=O)cc1Nc1cccc(-c2ncn(C)n2)c1OC (centres unmarked) [CPD-065, 6-(1-((2-(2,6-Dioxopiperidin-3-yl)-1,3-dioxoisoindolin-5-yl)amino)-18-oxo-3,6,9,12,15-pentaoxa-19-azahenicosan-21-amido)-4-((2-methoxy-3-(1-methyl-1H-1,2,4-triazol-3-yl)phenyl)amino)-N-methylpyridazine-3-carboxamide] | ≤20 | ≤20 |  | 
CNC(=O)c1nnc(NC(=O)CNC(=O)CCCCOc2cc(-c3scnc3C)ccc2CNC(=O)[C@@H]2C[C@@H](O)CN2C(=O)[C@@H](NC(=O)C2(F)CC2)C(C)(C)C)cc1Nc1cccc(-c2ncn(C)n2)c1OC [CPD-104, 6-(2-(5-(2-(((2S,4R)-1-((S)-2-(1-Fluorocyclopropane-1-carboxamido)-3,3-dimethylbutanoyl)-4-hydroxypyrrolidine-2-carboxamido)methyl)-5-(4-methylthiazol-5-yl)phenoxy)pentanamido)acetamido)-4-((2-methoxy-3-(1-methyl-1H-1,2,4-triazol-3-yl)phenyl)amino)-N-methylpyridazine-3-carboxamide] |  |  | C (C: ≤20% TYK2 degradation) | C (C: ≤20% TYK2 degradation)
CNC(=O)c1nnc(Nc2ccc(N3CCN(C(=O)CCCCCC(=O)N[C@H](C(=O)N4C[C@H](O)C[C@H]4C(=O)NCc4ccc(-c5scnc5C)cc4)C(C)(C)C)CC3)cn2)cc1Nc1cccc(-c2ncn(C)n2)c1OC [CPD-099, 6-((5-(4-(7-(((S)-1-((2S,4R)-4-hydroxy-2-((4-(4-methylthiazol-5-yl)benzyl)carbamoyl)pyrrolidin-1-yl)-3,3-dimethyl-1-oxobutan-2-yl)amino)-7-oxoheptanoyl)piperazin-1-yl)pyridin-2-yl)amino)-4-((2-methoxy-3-(1-methyl-JH-1,2,4-triazol-3-yl)phenyl)amino)-N-methylpyridazine-3-carboxamide] |  |  | A (A: ≥60% TYK2 degradation) | B (B: <60% TYK2 degradation, and >20% TYK2 degradation)
CNC(=O)c1nnc(NC(=O)CNC(=O)CCCCCCCCCC(=O)N[C@H](C(=O)N2C[C@H](O)C[C@H]2C(=O)NCc2ccc(-c3scnc3C)cc2)C(C)(C)C)cc1Nc1cccc(-c2ncn(C)n2)c1OC [CPD-041, N^1—((S)-1-((2S,4R)-4-Hydroxy-2-((4-(4-methylthiazol-5-yl)benzyl)carbamoyl)pyrrolidin-1-yl)-3,3-dimethyl-1-oxobutan-2-yl)-N^11-(2-((5-((2-methoxy-3-(1-methyl-1H-1,2,4-triazol-3-yl)phenyl)amino)-6-(methylcarbamoyl)pyridazin-3-yl)amino)-2-oxoethyl)undecanediamide] | 50 | 30 |  | 
CNC(=O)c1nnc(NC(=O)CNC(=O)COCCOCCOCC(=O)N[C@H](C(=O)N2C[C@H](O)C[C@H]2C(=O)NCc2ccc(-c3scnc3C)cc2)C(C)(C)C)cc1Nc1cccc(-c2ncn(C)n2)c1OC [CPD-029, 6-((S)-16-((2S,4R)-4-Hydroxy-2-((4-(4-methylthiazol-5-yl)benzyl)carbamoyl)pyrrolidine-1-carbonyl)-17,17-dimethyl-4,14-dioxo-6,9,12-trioxa-3,15-diazaoctadecanamido)-4-((2-methoxy-3-(1-methyl-1H-1,2,4-triazol-3-yl)phenyl)amino)-N-methylpyridazine-3-carboxamide] | ≤20 | ≤20 |  | 
